Assay results taken from US8394785B2, “Methods for the treatment and amelioration of urticaria” (Jado Technologies GmbH, priority 2005, dated 2013).

What was measured:
[1] = test system: primary human mast cells (human skin); test: Histamine release assay, anti-IgE induced, primary human mast cells; assay type: cell-based; conditions: Mast cell, maximal effect at 25 μM, not dependent on pre-incubation time, read-out: maximal inhibitory effect on IgE-induced histamine release
Protocol: Tissue mast cells were isolated from human skin obtained during cosmetic surgery. Use of human skin was conducted according to the Declaration of Helsinki Principles and was approved by the Institutional Review Board of the Charité—Universitätsmedizin Berlin. For isolation of mast cells, the epidermis was enzymatically detached by an overnight incubation at 4° C. with dispase at a concentration of 1 mg/ml. The remaining dermis was dispersed by incubation with a mix of collagenase I and hyaluronidase for 1 h at 37° C. Dispersion was repeated three times, and the collected cells were washed. […] The final mast cell purity was >90% as measured by Toluidin blue staining. The viability of mast cells was >95% as assessed by Trypan blue staining (Grützkau et al 2000, Artuc et al 2002). The quantification of histamine levels was achieved using an automated histamine-analyser system (Firm Borgwelt Technik). The wavelength of the excitation was 355-360 nm and the emission wavelength of fluorescence measurement was 450-460 nm. The intensity of fluorescence was directly proportional to the concentration of histamine in the samples. The amount of released histamine was calculated according to the following formula: net histamine release=(release−blank)×(100/complete). […]

[2] = test system: membrane integrity (lactate dehydrogenase release)
[3] = test system: Rat basophilic leukemia (RBL-2H3) cells; test: Mast cell degranulation assay (β-hexosaminidase release); assay type: cell-based; conditions: Rattus norvegicus
Protocol: The assay measures release of β-hexosaminidase as a marker of release of various preformed pharmacological agents in response to clustering of the high affinity IgE receptor (FcεRI) by means of multivalent antigen-IgE complexes. Rat basophilic leukemia (RBL-2H3) cells, a commonly used model of mast cell degranulation, are sensitized with anti-DNP specific IgE and challenged with multivalent DNP-BSA. The release of β-hexosaminidase into the supernatant is measured by enzymatic conversion of the fluorogenic substrate 4-methylumbelliferyl-N-acetyl-β-D-glucosaminide to N-acetyl-β-D-glucosamine and highly fluorescent methylumbelliferone and quantified by fluorescence detection in a Tecan Safire™ plate reader.
RBL-2H3 cells obtained from the German Collection of Microorganisms and Cell Cultures (Braunschweig, Germany) were maintained in 70% Minimum Essential Medium with Earle's Salts/20% RPMI 1640/10% heat-inactivated fetal calf serum) supplemented with 2 mM GlutaMAX™-I in 5% CO2 at 37° C. and routinely checked to be free of mycoplasma contamination. Cells grown in 175 cm^2 flasks were split with 0.05% Trypsin/EDTA and resuspended in 20 ml fresh medium. One hundred and 50 μl cell suspension were plated per well into 24 well cluster plates (Costar, Schiphol-Rijk, Netherlands) and cells were used one or two days after plating, respectively.
Two to 24 hours before incubation with test compounds the medium was removed and cells were sensitized with 0.4 μg/ml anti-DNP IgE in fresh medium. Following sensitization, cells were washed once with warm TyB and incubated for 60 min with test compound at a maximum of 100 μM or the highest non-toxic concentration (total vehicle concentration adjusted to 1%) or 1% vehicle in TyB at 37° C. DNP-HSA (0.1 μg/ml final concentration) or buffer alone was added and cells incubated for 15 min at 37° C. Plates were centrifuged at 4° C. for 5 min at 250×g and immediately transferred to ice. Supernatants were collected and the cells lysed with lysis buffer. Hexosaminidase activity in supernatants and lysates was measured by incubating 25 μl aliquots with 100 μl MUG substrate solution in a 96-well plate at 37° C. for 30 min. The reaction was terminated by addition of 150 μl stop solution. Fluorescence was measured in a Tecan Safire™ plate reader at 365 nm excitation and 440 nm emission settings.
Each compound is tested in duplicates in at least three independent experiments. β-hexosaminidase release is calculated after subtraction of unspecific release (release without addition of antigen) using the formula: % degranulation=100×RFU supernatant/RFU lysate
Inhibition of β-hexosaminidase release with respect to control is calculated as
follows: % inhibition=100×(1−(RFU supernatant of compound/RFU supernatant of control))

- IC50 ([3]; 1 h, concentration at which 50% of maximal inhibition is reached, RBL-2H3, 60 min incubation with compound, DNP antigen challenge, read-out: ID50 (the source's name)): 4.6 µM
SMILES: CCCCCCCCCCCCCCCCOP(=O)([O-])OCC[N+](C)(C)C [Compound 3, 1-hexadecylphosphoryl-choline]
- inhibition at 25 µM [1]: 35%
- CD50 [2]: 69.5 µM
- inhibition at 10 µM ([3]; RBL-2H3, 10 μM, read-out: maximum inhibition (concentration used)): 87%
- inhibition at 25 µM ([3]; RBL-2H3, at or 25 μM, read-out: inhibition of degranulation): > 75%
